ChEMBL document CHEMBL1201862, “PubChem BioAssay data set” (2004)
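Exposure lasted 48 hours, with cells grown in 96-well plates and compounds tested at five concentrations. GI50 marks 50% less growth.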 The source made the active and inactive calls. No stated cut-off is given here; in the data, active = GI50 up to about 1.1 µM and inactive = higher.

How the values were obtained:
Assay in all cases: DTP human tumour cell line panel, 48 h
A549 = tested on: A549
ACHN = tested on: ACHN
BT-549 = tested on: BT-549
CAKI-1 = tested on: CAKI-1
DU-145 = tested on: DU-145
HCT-116 = tested on: HCT-116
HCT-15 = tested on: HCT-15
Hs-578T = tested on: Hs-578T
NCI-H23 = tested on: NCI-H23
NCI/ADR-RES = tested on: NCI/ADR-RES
OVCAR-5 = tested on: OVCAR-5
RPMI-8226 = tested on: RPMI-8226
SF-539 = tested on: SF-539
T47D = tested on: T47D
TK-10 = tested on: TK-10
UACC-257 = tested on: UACC-257
UACC-62 = tested on: UACC-62
UO-31 = tested on: UO-31
HOP-92 = tested on: HOP-92

SMILES | GI50 (A549) | GI50 (ACHN) | GI50 (BT-549) | GI50 (CAKI-1) | GI50 (DU-145) | GI50 (HCT-116) | GI50 (HCT-15) [µM] | GI50 (Hs-578T) | GI50 (NCI-H23) | GI50 (NCI/ADR-RES) | GI50 (OVCAR-5) | GI50 (RPMI-8226) | GI50 (SF-539) | GI50 (T47D) | GI50 (TK-10) | GI50 (UACC-257) | GI50 (UACC-62) | GI50 (UO-31) | GI50 (HOP-92)
C[C@]12CC[C@H]3[C@@H](CCC4=CC(=O)CC[C@@]43C)[C@]1(O)CC[C@]2(O)C(=O)CO | > 100 µM (inactive) | > 100 µM (inactive) | > 100 µM (inactive) | > 100 µM (inactive) | > 100 µM (inactive) | > 100 µM (inactive) | > 100 | > 100 µM (inactive) | > 100 µM (inactive) | > 100 µM (inactive) | > 100 µM (inactive) | > 100 µM (inactive) | > 100 µM (inactive) | > 100 µM (inactive) | > 100 µM (inactive) | > 100 µM (inactive) | > 100 µM (inactive) | > 100 µM (inactive) | 
CC1=NN(c2nc(N)nc(CSc3cc(Cl)c(C)cc3S(N)(=O)=O)n2)C(C)(C)C1 | > 10 µM (inactive) | > 10 µM (inactive) | > 10 µM (inactive) | > 10 µM (inactive) | > 10 µM (inactive) | > 10 µM (inactive) | > 10 | > 10 µM (inactive) | > 10 µM (inactive) | > 10 µM (inactive) | > 10 µM (inactive) | > 10 µM (inactive) | > 10 µM (inactive) | > 10 µM (inactive) | > 10 µM (inactive) | > 10 µM (inactive) | > 10 µM (inactive) | 0.543 µM (active) | 
Cc1ccc2c(=O)c3cccc(CC(=O)O)c3[nH]c2c1C | > 100 µM (inactive) | > 100 µM (inactive) | > 100 µM (inactive) | > 100 µM (inactive) | > 100 µM (inactive) | > 100 µM (inactive) | > 100 | 72.1 µM (inactive) | > 100 µM (inactive) | > 100 µM (inactive) |  | > 100 µM (inactive) | > 100 µM (inactive) |  | > 100 µM (inactive) | > 100 µM (inactive) | > 100 µM (inactive) | > 100 µM (inactive) | > 100 µM (inactive)
COC(=O)c1ccccc1C#CCCCOS(C)(=O)=O | > 10 µM (inactive) | > 10 µM (inactive) | > 10 µM (inactive) | > 10 µM (inactive) | > 10 µM (inactive) | > 10 µM (inactive) | > 10 | > 10 µM (inactive) | > 10 µM (inactive) | > 10 µM (inactive) | > 10 µM (inactive) | > 10 µM (inactive) | > 10 µM (inactive) | > 10 µM (inactive) | > 10 µM (inactive) | > 10 µM (inactive) | > 10 µM (inactive) | > 10 µM (inactive) | 
COC(=O)[C@H](C)NC(=O)[C@H](CSC)N1C(=O)N[C@@H](C(C)C)C1=O | > 100 µM (inactive) | > 100 µM (inactive) | > 100 µM (inactive) | > 100 µM (inactive) | > 100 µM (inactive) | > 100 µM (inactive) | > 100 |  | > 100 µM (inactive) | > 100 µM (inactive) | > 100 µM (inactive) | > 100 µM (inactive) | > 100 µM (inactive) | > 100 µM (inactive) | > 100 µM (inactive) | > 100 µM (inactive) | > 100 µM (inactive) | > 100 µM (inactive) | > 100 µM (inactive)
COc1ccc(/C=C/NC=O)cc1 | > 100 µM (inactive) | > 100 µM (inactive) | > 100 µM (inactive) |  | > 100 µM (inactive) | > 100 µM (inactive) | > 100 | > 100 µM (inactive) | > 100 µM (inactive) | > 100 µM (inactive) | > 100 µM (inactive) | > 100 µM (inactive) | > 100 µM (inactive) | > 100 µM (inactive) | > 100 µM (inactive) | > 100 µM (inactive) | > 100 µM (inactive) | > 100 µM (inactive) | 
